In US20240190872A1, “FABI INHIBITORS FOR GRAM-NEGATIVE PATHOGENS” (THE BOARD OF TRUSTEES OF THE UNIVERSITY OF ILLINOIS, priority 2021, published 2024):
In brackets after ≈: the same amount, converted by molar mass.

Columns and labels:
S. aureus ATCC 29213 = experiment: Antimicrobial susceptibility test (MIC), micro-dilution broth; assay type: cell-based; settings: S. aureus ATCC 29213
Source text: (§1) Bacterial strains. S. aureus ATCC 29213, E. coli MG1655, E. coli BAA-2340, E. coli BAA-2469, E. coli BAA-2471, E. cloacae BAA-2341, E. cloacae BAA-2468, K. pneumoniae BAA-1705, K. pneumoniae BAA-2342, K. pneumoniae BAA-2470, K. pneumoniae BAA-2472, and K. pneumoniae BAA-2473 were obtained from ATCC. E. coli JW5503 and E. coli JW3596 were obtained from the KEIO Collection. E. cloacae ATCC 29893 was provided by W. van der Donk (UIUC). E. coli AR-0346, E. coli AR-0349, E. coli AR-0493, E. coli AR-0495, and K. pneumoniae AR-0347 were obtained from the CDC and FDA AR Isolate Bank. E. coli F20987, E. coli M66623, E. cloacae S28901.1, K. pneumoniae M14723, K. pneumoniae M67198, K. pneumoniae M67297, K. pneumoniae S20595, K. pneumoniae S47889, A. baumannii W41979, A. baumannii F19521, A. baumannii M13100, and A. baumannii WO22 were obtained from the University of Illinois Chicago Medical School. A. baumannii KB304, A. baumannii KB343, and A. baumannii KB357 were provided by J. Quale.
(§2) Antimicrobial susceptibility tests. Susceptibility testing was performed in biological triplicate, using the micro-dilution broth method as outlined by the Clinical and Laboratory Standards Institute. Bacteria were cultured with cation-adjusted Muller-Hinton broth (Sigma-Aldrich, Cat# 90922) in round-bottom 96-well plates (Corning, Cat# 3788). Human serum (pooled gender, 0.2 μm filtered) was purchased from BioIVT (Hicksville, NY).

E. coli ΔtolC (JW5503) = assay type: cell-based; settings: efflux deficient E. coli ΔtolC
Procedure: (§3) The compounds synthesized, shown in Table 1, were evaluated against Gram-positive and Gram-negative reference strains (S. aureus 29213 and E. coli MG1655, respectively), as well as an efflux deficient E. coli strain (ΔtolC, JW5503).
as §1, §2

E. coli MG1655 = experiment: Antimicrobial susceptibility test (MIC); assay type: cell-based; settings: E. coli MG1655
Source text: as §1, §2

K. pneumoniae BAA 2472 = experiment: microbe, parasite or virus in culture; assay type: cell-based; settings: clinical isolate
Procedure: as §3, §1, §2

A. baumannii AR 0033 = experiment: microbe, parasite or virus in culture; assay type: cell-based; settings: clinical isolate
Procedure: as §2

A. baumannii AR 0273 = experiment: microbe, parasite or virus in culture; assay type: cell-based; settings: clinical isolate
Procedure: as §2

A. baumannii AR 0299 = experiment: microbe, parasite or virus in culture; assay type: cell-based; settings: clinical isolate
Procedure: as §2

A. baumannii AR 0313 = experiment: microbe, parasite or virus in culture; assay type: cell-based; settings: clinical isolate
Procedure: as §2

E. coli AR 0048 = experiment: microbe, parasite or virus in culture; assay type: cell-based; settings: clinical isolate
Procedure: as §2

E. coli AR 0085 = experiment: microbe, parasite or virus in culture; assay type: cell-based; settings: clinical isolate
Procedure: as §2

K. pneumoniae AR 0066 = experiment: microbe, parasite or virus in culture; assay type: cell-based; settings: clinical isolate
Procedure: as §2

K. pneumoniae AR 0113 = experiment: microbe, parasite or virus in culture; assay type: cell-based; settings: clinical isolate
Procedure: as §2

K. pneumoniae AR 0560 = experiment: microbe, parasite or virus in culture; assay type: cell-based; settings: clinical isolate
Procedure: as §2

in vivo = settings: female, C57BL/6, mouse, in vivo, ip
Procedure: Mouse MTD of Debio-1452-NH3. The protocol was approved by the IACUC at the University of Illinois at Urbana-Champaign (Protocol Number:16144). In these studies, 10- to 12-week-old female C57BL/6 mice purchased from Charles River were used. The maximum tolerate dose (MTD) of single compound was determined first. Debio-1452 amine analogues were formulated in 20% sulfobutyl ether β-cyclodextrin in sterile water. Debio-1452-NH3 (1), and compounds 2 and 3 were given by IP injection and mice were monitored for signs of toxicity for 2 weeks (single dose). For multiple dose, the compound was given by daily IP for 5 consecutive days and mice were monitored for signs of toxicity for 1 month. MTD was the highest dosage with acceptable toxicity (e.g. <20% weight loss). Single dose MTDs were initially determined. […] The MTD of Debio-1452-NH3 (1) was used to inform the dosing schedule used in subsequent efficacy studies.

Row | Compound | MIC S. aureus 29213 (S. aureus ATCC 29213) [µg/mL] | MIC E. coli ΔtolC (E. coli ΔtolC (JW5503)) [µg/mL] | MIC E. coli MG1655 (E. coli MG1655) [µg/mL] | MIC K. pneumoniae BAA 2472 (K. pneumoniae BAA 2472) [µg/mL] | MIC A. baumannii AR 0033 (A. baumannii AR 0033) [µg/mL] | MIC A. baumannii AR 0273 (A. baumannii AR 0273) [µg/mL] | MIC A. baumannii AR 0299 (A. baumannii AR 0299) [µg/mL] | MIC A. baumannii AR 0313 (A. baumannii AR 0313) [µg/mL] | MIC E. coli AR 0048 (E. coli AR 0048) [µg/mL] | MIC E. coli AR 0085 (E. coli AR 0085) [µg/mL] | MIC K. pneumoniae AR 0066 (K. pneumoniae AR 0066) [µg/mL] | MIC K. pneumoniae AR 0113 (K. pneumoniae AR 0113) [µg/mL] | MIC K. pneumoniae AR 0560 (K. pneumoniae AR 0560) [µg/mL] | MTD at 2 weeks (in vivo) [mg/kg]
1 | Cc1c(CN(C)C(=O)/C=C/c2cnc3c(c2)CC2(CNC2)C(=O)N3)oc2ccccc12 [Compound 5] | 0.016 (≈ 0.0384 µM) | 0.031 (≈ 0.0744 µM) | 4 (≈ 9.6 µM) | 8 (≈ 19.2 µM) | 8 (≈ 19.2 µM) | 8 (≈ 19.2 µM) | 16 (≈ 38.4 µM) | 16 (≈ 38.4 µM) | 8 (≈ 19.2 µM) | 4 (≈ 9.6 µM) | 8 (≈ 19.2 µM) | 16 (≈ 38.4 µM) | 16 (≈ 38.4 µM) | –
2 | Cc1c(CN(C)C(=O)C=Cc2cnc3c(c2)CC2(CC(N)C2)C(=O)N3)oc2ccccc12 (mixture of isomers) [(±)-6] | 0.016 | 0.062 | 4 | 8 | 16 | 16 | 16 | 32 | 16 | 16 | 8 | 16 | 8 | –
3 | Cc1c(CN(C)C(=O)/C=C/c2cnc3c(c2)CC(CCNC(=O)OC(C)(C)C)C(=O)N3)oc2ccccc12 (centres unmarked) [Compound 10] | 0.002 (≈ 0.00386 µM) | 0.031 (≈ 0.0598 µM) | 8 (≈ 15.4 µM) | 16 (≈ 30.9 µM) | 16 (≈ 30.9 µM) | 8 (≈ 15.4 µM) | 8 (≈ 15.4 µM) | 16 (≈ 30.9 µM) | 8 (≈ 15.4 µM) | 8 (≈ 15.4 µM) | 32 (≈ 61.7 µM) | 32 (≈ 61.7 µM) | >32 | –
4 | Cc1c(CN(C)C(=O)/C=C/c2cnc3c(c2)CC(CCN)C(=O)N3)oc2ccccc12.Cl (centres unmarked) [Compound 3, (E)-3-(6-(aminoethyl)-7-oxo-5,6,7,8-tetrahydro-1,8-naphthyridin-3-yl)-N-methyl-N-((3-methylbenzofuran-2-yl)methyl)acrylamide hydrochloride] | – | – | – | – | – | – | – | – | – | – | – | – | – | 100
5 | Cc1c(CN(C)C(=O)/C=C/c2ccc3c(c2)CCC(N)C(=O)N3)oc2ccccc12 (single isomer, unassigned) [Isomer 2] | – | – | – | 4 (≈ 9.91 µM) | 2 (≈ 4.96 µM) | 4 (≈ 9.91 µM) | 2 (≈ 4.96 µM) | 4 (≈ 9.91 µM) | 4 (≈ 9.91 µM) | 2 (≈ 4.96 µM) | 4 (≈ 9.91 µM) | 8 (≈ 19.8 µM) | 4 (≈ 9.91 µM) | –
6 | Cc1c(CN(C)C(=O)/C=C/c2cnc3c(c2)CCC(CN)C(=O)N3)oc2ccccc12 (racemic) [(±)-12] | 0.031 (≈ 0.0741 µM) | 0.125 (≈ 0.299 µM) | 8 (≈ 19.1 µM) | 32 (≈ 76.5 µM) | 16 (≈ 38.2 µM) | 32 (≈ 76.5 µM) | 32 (≈ 76.5 µM) | >32 | 16 (≈ 38.2 µM) | 8 (≈ 19.1 µM) | 32 (≈ 76.5 µM) | 32 (≈ 76.5 µM) | 16 (≈ 38.2 µM) | –
7 | Cc1c(CN(C)C(=O)/C=C/c2cnc3c(c2)CC2(CNC2)C(=O)N3)oc2ccccc12 [drawing 106] | – | – | – | 8 (≈ 19.2 µM) | 8 (≈ 19.2 µM) | 16 (≈ 38.4 µM) | 16 (≈ 38.4 µM) | 16 (≈ 38.4 µM) | 8 (≈ 19.2 µM) | 4 (≈ 9.6 µM) | 8 (≈ 19.2 µM) | 16 (≈ 38.4 µM) | 16 (≈ 38.4 µM) | –
8 | Cc1c(CN(C)C(=O)/C=C/c2ccc3c(c2)CCC(N)C(=O)N3)oc2ccccc12 (single isomer, unassigned) [Isomer 1] | – | – | – | >32 | >32 | >32 | >32 | >32 | >32 | >32 | >32 | >32 | >32 | –
